Values after ≈ are worked out from the molar mass of the structure shown.

By kinetic solubility is commonly meant the concentration staying in solution when a stock, usually in DMSO, is diluted into the medium.

For the data set the following is noted: buffer; pH 7.4; 200.0 µM.
`CCc1cccc2c1NC1(CCCC1)CC2C.Cl` (stereo not drawn) returned a kinetic solubility of less than 0.6 µg/mL.
In the case of `CN1CCN(C(=O)CSc2ccc(Cl)cc2)CC1`, the solubility (kinetic) was greater than 42.7 µg/mL.
Next, `COc1ccc(-c2nc(N)nc(C(F)(F)F)c2-c2cscn2)c(O)c1`: less than 0.2 µg/mL; `CC(C)(C)NC(=O)NC(=O)CN1CCc2ccccc21`: 27.5 µg/mL (≈ 99.9 µM); `COc1cccc(C(=O)NCc2ccc3c(c2)OCO3)c1`: 37 µg/mL (≈ 130 µM).
The molecule `COc1cc(-c2cc(C(=O)OCC(=O)NC3CC3)c3ccccc3n2)cc(OC)c1OC` registered a kinetic solubility of 3.7 µg/mL (≈ 8.48 µM).
Turning to `COC(=O)CCCCCCCCC(O)CN(C)C` (stereo not drawn), the kinetic solubility came to 27.7 µg/mL (≈ 107 µM).
Then `O=S(=O)(Nc1ccccc1Cl)c1cccc2nsnc12`, with greater than 48.9 µg/mL.
`COc1ccc(NC(=O)CCOc2ccc(C)cc2)c(OC)c1`: the solubility (kinetic) came to 29.6 µg/mL (≈ 93.9 µM).
Then `O=C(NC1CCN(Cc2ccc(F)cc2)CC1)c1ccccc1`, with 40.7 µg/mL (≈ 130 µM).
Molecule `O=C(Nc1ccc2oc(-c3ccccc3F)nc2c1)c1ccccc1F` had a kinetic solubility of less than 0.4 µg/mL.
Next, `CC(C)(C)N(Cc1ccccc1)C(=O)COC(=O)c1ccc(S(=O)(=O)N2CCOCC2)cc1`: 18.4 µg/mL (≈ 38.8 µM); `O=C(c1cccc([N+](=O)[O-])c1)c1ccccn1`: greater than 34.2 µg/mL.
The molecule `Br.CCC1CC(CSC(=N)N)OC1=O` (stereo not drawn) yielded a solubility (kinetic) greater than 42.5 µg/mL.
In turn, `COc1ccc(NC(=O)NC2CCCc3ccccc32)c(OC)c1` (stereo not drawn) gave a solubility (kinetic) of 1 µg/mL (≈ 3.06 µM).
Turning to `Cc1ccc(NC(=S)Nc2cccc(-c3n[nH]c(=S)o3)c2)cc1`, the solubility (kinetic) was greater than 51.4 µg/mL.
Next, `CCOC(=O)Cn1c(=O)n(Cc2ccc(C)cc2)c(=O)c2cccnc21`: 1.4 µg/mL (≈ 3.96 µM); `CCOc1ccccc1NC(=O)Nc1ccccn1`: less than 0.2 µg/mL; `C=CCn1c(=S)[nH]c2sc3c(c2c1=O)CCCC3`: 14.7 µg/mL (≈ 52.8 µM).
As for `COc1cc(NC(=S)N2CCN(CCO)CC2)cc(OC)c1`, the solubility (kinetic) is greater than 48.8 µg/mL.
Then `O=C(Nc1cccc2c1CCCC2)c1ccc(F)cc1`, with 2.2 µg/mL (≈ 8.17 µM).
`CCC(C)NC(=O)COC(=O)c1ccc(Cl)cc1O` (stereo not drawn) showed a solubility (kinetic) of 4.7 µg/mL (≈ 16.4 µM).
Next, `CCOc1ccc(S(=O)(=O)N=C(c2ccccc2)N2CCOCC2)cc1`: greater than 56.2 µg/mL; `Cn1cnc([N+](=O)[O-])c1Cl`: greater than 24.2 µg/mL; `Cc1nc2ccccc2c(=O)n1-c1ccc(Cl)cc1Cl`: greater than 45.8 µg/mL.
For `CCn1c(SCC(=O)NC2CCCC2)nnc1-c1ccco1`, the kinetic solubility was greater than 48.1 µg/mL.
Next, `Cc1ccc(NC(=O)C(=O)Nc2ccc(C)cn2)nc1`: 1.8 µg/mL (≈ 6.66 µM).
Next, `Cn1cc(SCC(=O)NC2CCCC2)c2ccccc21`: greater than 43.3 µg/mL; `COc1nc2ccccc2nc1N1CCN(C)CC1`: 38.4 µg/mL (≈ 149 µM).
Then `CCc1noc(C)c1C(=O)NCCc1ccc(F)cc1`, with greater than 41.4 µg/mL; and `COC(=O)c1ccccc1Oc1cnc2ccccc2n1`, with greater than 42 µg/mL; and `Cc1cc(C)nc(SC(C)CNS(=O)(=O)c2ccccc2)n1` (stereo not drawn), with 45.9 µg/mL (≈ 136 µM).
As to `COc1ccc(C23NCCN2C(=O)c2ccccc23)cc1` (stereo not drawn), the kinetic solubility was greater than 42 µg/mL.
Then `COc1ccc(/C=C/C(=O)OCC(=O)N2CCCCCC2)cc1OC`, with 37.7 µg/mL (≈ 109 µM); and `CC(=O)NNc1cc(C)nc(N)n1`, with greater than 27.2 µg/mL; and `Cc1ccc2c(C)cc(=S)[nH]c2c1`, with 7.1 µg/mL (≈ 37.5 µM).
For the molecule `O=C(O)C1C2C=CC(O2)C1C(=O)NCCc1cccc(Cl)c1` (stereo not drawn), the kinetic solubility is greater than 48.3 µg/mL.
Turning to `Cc1cc(C)cc(C(=O)NCCN2CCOCC2)c1`, the solubility (kinetic) is greater than 39.4 µg/mL.
Then `COc1ccc(CCC(=O)NC2CCC(C)CC2)cc1` (stereo not drawn), with 22.2 µg/mL (≈ 80.6 µM); and `CSc1ncccc1C(=O)Nc1cccc(S(=O)(=O)N2CCOCC2)c1`, with greater than 59 µg/mL.
Molecule `Cc1ccc(CNC(=O)CN(C)S(=O)(=O)c2ccc(F)cc2)cc1` showed a solubility (kinetic) of 1.8 µg/mL (≈ 5.14 µM).
Then `O=C1CN(c2ccc(F)cc2)C(=S)N1c1ccccc1`, with 8.5 µg/mL (≈ 29.7 µM); and `CC(Sc1nnc(-c2ccco2)n1C)C(=O)NC1CCCC1` (stereo not drawn), with greater than 48.1 µg/mL; and `Cc1ccc(NCC(=O)N/N=C/c2ccncc2)cc1`, with greater than 40.2 µg/mL.
Then `CC(C)N1C(=O)C(O)(C2COC(C)(C)CC2=O)c2ccccc21` (stereo not drawn), with greater than 47.6 µg/mL.
Take `Cc1cc(/C=C(/C#N)C(=O)O)c(C)n1-c1cccc2ccccc12`: the solubility (kinetic) is greater than 47.5 µg/mL.
With `COc1cccc(NC(=O)COC(=O)CNC(=O)C2CCCCC2)c1`, the kinetic solubility is greater than 52.3 µg/mL.
Next, `O=C(N/C(=C/c1cccc([N+](=O)[O-])c1)C(=O)N1CCCC1)c1ccccc1`: 51.9 µg/mL (≈ 142 µM); `Cc1ccc(Cl)cc1N1CCN(CC(O)COC(C)C)CC1.Cl` (stereo not drawn): greater than 54.5 µg/mL; `CCCCN(CC)Cc1c(O)ccc2c(-c3ccccc3)cc(=O)oc12`: 36.1 µg/mL (≈ 103 µM).
In turn, `O=C(NCCNC(=O)c1ccc(F)cc1)c1ccc(F)cc1` registered a kinetic solubility of 12.9 µg/mL (≈ 42.4 µM).
For `O=C(NC1CCCCC1)c1cccc(S(=O)(=O)N2CCCCC2)c1`, the kinetic solubility is 5.6 µg/mL (≈ 16 µM).
Take `COc1cccc(C(=O)NC23CC4CC(CC(C4)C2)C3)c1`: the solubility (kinetic) amounted to 24.8 µg/mL (≈ 86.9 µM).

The record behind these values is PubChem BioAssay AID1996.
